Broadly, the IC50 is the point on the concentration scale where inhibition reaches its midpoint. For orientation: EC50 means the concentration that produces a half-maximal response. A high value points to a need for much substance. The CC50 is the concentration at which the toxic effect on the cells reaches its halfway point. Read a low CC50 as greater toxicity to the cells.

Results on four compounds are retold here after ChEMBL document CHEMBL1138986, “Novel bifunctional quinolonyl diketo acid derivatives as HIV-1 integrase inhibitors: design, synthesis, biological activities, and mechanism of action” (J Med Chem, 2006).

The target of assay [1] is T1, Human immunodeficiency virus type 1 integrase (Human immunodeficiency virus 1, UniProt Q7ZJM1). The experiment in a line: Inhibition of HIV1 integrase strand transfer activity in presence of MgCl2 by gel-based assay.
T1 sequence (Q7ZJM1 whole entry): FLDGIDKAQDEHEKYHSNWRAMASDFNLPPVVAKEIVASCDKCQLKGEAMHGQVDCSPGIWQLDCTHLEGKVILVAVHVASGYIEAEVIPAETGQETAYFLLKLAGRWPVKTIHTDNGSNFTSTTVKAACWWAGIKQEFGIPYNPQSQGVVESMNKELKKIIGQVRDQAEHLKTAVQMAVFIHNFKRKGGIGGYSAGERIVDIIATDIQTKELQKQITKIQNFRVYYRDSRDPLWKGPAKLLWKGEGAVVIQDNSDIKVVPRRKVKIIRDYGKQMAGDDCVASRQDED
Assay [2] deals with T1, Human immunodeficiency virus type 1 integrase. Nature of the assay: Inhibition of HIV1 integrase strand transfer activity in presence of MgCl2 by plate-based electrochemiluminescent assay.
The target is the same in assay [3]. Nature of the assay: Inhibition of HIV1 integrase strand transfer activity in presence of MnCl2.
The target is the same in assay [4]. The experiment in a line: Inhibition of HIV1 integrase 3'-processing activity in presence of MgCl2.
Assay [5] deals with Human immunodeficiency virus 1. Nature of the assay: Antiviral activity against HIV1 3B. The class given is functional, organism-based. Particulars: Human immunodeficiency virus 1, 3B.
Assay [6] relates to U-937. Nature of the assay: Cytotoxicity against U937 cell line. It is filed as functional. Particulars: Homo sapiens.
For assay [7], the target named is T1, Human immunodeficiency virus type 1 integrase. The experiment in a line: Inhibition of HIV1 integrase 3'-processing activity in presence of MnCl2.
Assay [8] deals with U-937. The experiment in a line: Selectivity index (CC50/EC50). The class given is functional.

Each structure is given as a SMILES string. A value given as a limit tells only on which side of the number the result lay.

As for `CCOC(=O)C(=O)/C=C(\O)c1ccc2ncc(/C(O)=C/C(=O)C(=O)OCC)c(O)c2c1`, the half-inhibitory concentration (IC50) was 39 µM in assay [1]; 77 µM in assay [2]; 80 µM in assay [3]; 28 µM in assay [4]; above 333 µM in assay [7]. For the same compound, in assay [5], the concentration for a half-maximal effect (EC50) was above 50 µM. In addition, the CC50 in assay [6] is above 200 µM.
Take `CCOC(=O)C(=O)/C=C(\O)c1ccc2c(c1)c(=O)c(/C(O)=C/C(=O)C(=O)OCC)cn2Cc1ccc(F)cc1`: the IC50 stood at 0.29 µM in assay [1]; 0.38 µM in assay [2]; 0.25 µM in assay [3]; 21 µM in assay [4]; 40 µM in assay [7]. The same compound returned a concentration for a half-maximal effect (EC50) in assay [5] of 20 µM. This compound also had a Selectivity index in assay [8] of 9.6. In assay [6], this compound registered a half-maximal cytotoxic concentration (CC50) of 191 µM.
In assay [6], `O=C(O)C(=O)/C=C(\O)c1ccc2c(c1)c(=O)c(/C(O)=C/C(=O)C(=O)O)cn2Cc1ccc(F)cc1` displayed a CC50 above 200 µM.
With `O=C(O)C(=O)/C=C(\O)c1ccc2ncc(/C(O)=C/C(=O)C(=O)O)c(O)c2c1`, the IC50 was 2.9 µM in assay [1]; 9.1 µM in assay [2]; 0.43 µM in assay [3]; 22 µM in assay [4]; above 4.1 µM in assay [7]. Also, the response in assay [5] was half-maximal at 36.3 µM (EC50). The same compound returned a Selectivity index in assay [8] of 5.5. Moreover, in assay [6], the CC50 was above 200 µM.
